Measured values taken from US20250188079A1, “INHIBITING CYCLIC AMP-RESPONSIVE ELEMENT-BINDING PROTEIN (CREB)” (Forma Therapeutics, Inc., priority 2019, published 2025).

target: CBP (Homo sapiens (Human), UniProt Q92793); test: HTRF biochemical assay for CBP activity (TR-FRET, bromodomain); type: binding; conditions: geometric mean, 10-point 3-fold dilution 33 μM to 1.7 nM, read-out: BROMO IC50 TRF TB CBP (μM gmean)
Procedure: Example 1: HTRF Biochemical Assay for CBP Activity
The assay was performed in a final volume of 6 μL in assay buffer containing 50 mM Hepes (pH 7.5, (0.5M Hepes, pH 7.5 solution; Teknova H1575)), 0.5 mM GSH, 0.01% BGG (0.22 p M filtered, Sigma, G7516-25G), 0.005% BSA (0.22 μM filtered, EMD Millipore Corporation, 126575) and 0.01% Triton X-100 (Sigma, T9284-10L). Nanoliter quantities of 10-point, 3-fold serial dilution in DMSO were pre-dispensed into 1536 assay plates (Corning, #3724BC) for a final test concentration of 33 μM to 1.7 nM, top to lowest dose, respectively. 3 μL of 2×Protein and 3 μL of 2×Peptide Ligand were added to assay plates (pre-stamped with compound). Plates were incubated for varying times at room temperature prior to measuring the signal. TR-FRET (Time-Resolved Fluorescence Resonance Energy Transfer) was measured on the PHERAstar (BMG, equipped with HTRF optic module [337/520/490]) or on the Envision (PerkinElmer, equipped with the TRF Laser unit, TRF dual mirror D400/D505 and emission filters M520 and M495). Data were reported as percent inhibition compared with control wells based on the following equation: % inh=1−((TR-FRET ratio−AveLow)/(AveHigh−AveLow)) where TR-FRET ratio=(Fluorescence at 520 nm/Fluorescence at 490 nm)*10000), AveLow=average TR-FRET ratio of no enzyme control (n=32), and AveHigh=average TR-FRET ratio of DMSO control (n=32). IC50 values were determined by curve fitting of the standard 4 parameter logistic fitting algorithm included in the Activity Base software package: IDBS XE Designer Model205. Data is fitted using the Levenburg Marquardt algorithm. As set forth in Table 2 below, an IC50 value of greater than or equal to 0.001 μM and less than or equal to 0.01 μM is marked “++++”; a value greater than 0.01 μM and less than or equal to 0.1 μM is marked “+++”; a value greater than 0.1 μM and less than or equal to 1 μM is marked “++”; and a value greater than 1 μM and less than 1000 μM is marked “+.” Compounds that were not tested in a particular assay are marked “NT.”

CBP, sequence (Q92793 1085-1192): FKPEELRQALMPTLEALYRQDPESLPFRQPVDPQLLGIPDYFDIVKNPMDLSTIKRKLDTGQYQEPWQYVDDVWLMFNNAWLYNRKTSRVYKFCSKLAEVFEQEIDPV

First: COC(=O)N1CCc2ccc3c(nc(N4CCC(C(=O)O)CC4)n3[C@H](C)Cc3ccc(F)c(F)c3)c2C1 (single isomer, unassigned) [Compound 307]
Second: COC(=O)N1CCc2c(Cl)cc3c(nc(C4CCCCC4)n3C[C@H](C(=O)O)c3ccccc3)c2C1 [Compound 223]
The IC50 of the first is higher: 0.1 to 1 µM for the first, 0.01 to 0.1 µM for the second.

`COC(=O)N1CCc2ccc3c(nc([C@H]4CC[C@H](C(=O)O)CC4)n3[C@@H](C)Cn3ncc4ccccc43)c2C1` [Compound 88] and `COC(=O)N1CCc2c(C#N)cc3c(nc([C@H]4CC[C@H](C(=O)O)CC4)n3[C@@H](C)Cc3ccccc3)c2C1` [Compound 52] fall in the same range of IC50: 0.001 to 0.01 µM for the first, 0.001 to 0.01 µM for the second.

First: COC(=O)N1CCc2ccc3c(nc(N4CCC(C(=O)O)CC4)n3[C@@H](C)Cc3ccccc3)c2C1 (single isomer, unassigned) [Compound 5]
Second: COC(=O)N1CCc2ccc3c(nc([C@H]4CC[C@H](C(=O)O)CC4)n3[C@H](C)C[C@H]3CCCOC3)c2C1 [Compound 275]
The IC50 of the first is lower: 0.001 to 0.01 µM for the first, 0.01 to 0.1 µM for the second. The first is the more potent here.

First: COC(=O)N1CCc2ccc3c(nc([C@H]4CC[C@H](C(=O)O)CC4)n3[C@@H](C)C[C@]3(C)CC[C@H](OC)CC3)c2C1 [Compound 57]
Second: COC(=O)N1CCc2ccc3c(nc(C4CCCCC4)n3C[C@@H](C(=O)O)c3ccc(F)c(OC)c3)c2C1 [Compound 190]
The IC50 of the first is lower: 0.001 to 0.01 µM for the first, 0.01 to 0.1 µM for the second.

First: COC(=O)N1CCc2ccc3c(nc(N4CCN(C(C)=O)CC4)n3[C@@H](C)Cc3ccccc3)c2C1 [Compound 324]
Second: COC(=O)N1CCc2ccc3c(nc(C4CCCCC4)n3C[C@H](CC(=O)O)c3ccccc3)c2C1 [Compound 167]
The IC50 of the first is higher: 0.1 to 1 µM for the first, 0.001 to 0.01 µM for the second.

`COC(=O)N1CCc2ccc3c(nc([C@H]4CC[C@H](C(=O)O)CC4)n3Cc3ccc4c(c3)OCC4)c2C1` [Compound 86] and `COC(=O)N1CCc2ccc3c(nc([C@H]4CC[C@H](C(=O)O)CC4)n3[C@@H](C)Cc3ccc(C)cc3)c2C1` [Compound 93] fall in the same range of IC50: 0.001 to 0.01 µM for the first, 0.001 to 0.01 µM for the second.

`COC(=O)N1CCc2ccc3c(nc([C@H]4CC[C@H](C(=O)O)CC4)n3[C@H](C)Cc3ccccc3Cl)c2C1` [Compound 295] and `COC(=O)N1CCc2ccc3c(nc(N4CCN(S(C)(=O)=O)CC4)n3[C@H](C)Cn3cc(Cl)cn3)c2C1` [Compound 343] fall in the same range of IC50: 0.1 to 1 µM for the first, 0.1 to 1 µM for the second.

`COC(=O)N1CCc2c([C@@H]3CCOC3)cc3c(nc([C@H]4CC[C@H](C(=O)O)CC4)n3CCc3ccccc3)c2C1` [Compound 90] and `COC(=O)N1CCc2ccc3c(nc(N4CCN(S(C)(=O)=O)CC4)n3[C@@H](C)Cn3cc(Cl)cn3)c2C1` [Compound 66] fall in the same range of IC50: 0.001 to 0.01 µM for the first, 0.001 to 0.01 µM for the second.

`COC(=O)N1CCc2ccc3c(nc([C@H]4CC[C@H](C(=O)O)CC4)n3[C@H](C)[C@@H](O)c3ccccc3)c2C1` [Compound 146] and “(1S,3S)-3-[3-[(2S)-2-(3,4-difluorophenyl)propyl]-8-(methoxycarbonyl)-3H,6H,7H,8H,9H-imidazo[4,5-h]isoquinolin-2-yl]cyclohexane-1-carboxylic acid [Compound 29]” fall in the same range of IC50: 0.001 to 0.01 µM for the first, 0.001 to 0.01 µM for the second.

Compared with `COC(=O)N1CCc2ccc3c(nc(N4CCN(C(C)=O)CC4)n3[C@@H](C)Cc3cccnc3)c2C1` [Compound 234], “(1S,3S)-3-[3-[(2S)-1-(3,4-difluorophenyl)propan-2-yl]-8-(methoxycarbonyl)-3H,6H,7H,8H,9H-imidazo[4,5-h]isoquinolin-2-yl]cyclohexane-1-carboxylic acid [Compound 60]” is lower in IC50: 0.01 to 0.1 µM for the first, 0.001 to 0.01 µM for the second.

`COC(=O)N1CCc2ccc3c(nc(C4CCCCC4)n3CC[C@H]3CC[C@@H](C(=O)O)CC3)c2C1` [Compound 87] and `COC(=O)N1CCc2ccc3c(nc(-c4cccc(CC(=O)O)c4)n3[C@@H](C)Cc3ccccc3)c2C1` [Compound 101] fall in the same range of IC50: 0.001 to 0.01 µM for the first, 0.001 to 0.01 µM for the second.

Compared with `COC(=O)N1CCc2ccc3c(nc([C@H]4CC[C@H](C(=O)O)CC4)n3C3(Cc4ccccc4)COC3)c2C1` [Compound 271], `COC(=O)N1CCc2c(C(=O)O)cc3c(nc(C4CCCCC4)n3CCc3ccccc3)c2C1` [Compound 149] is lower in IC50: 0.01 to 0.1 µM for the first, 0.001 to 0.01 µM for the second. The second is the more potent here.

First: COC(=O)N1CCc2ccc3c(nc(-c4ccc(C(=O)O)c(OC)c4)n3[C@@H](C)Cc3ccccc3)c2C1 [Compound 208]
Second: COC(=O)N1CCc2ccc3c(nc(C4CCN(S(C)(=O)=O)CC4)n3[C@H](C)Cc3ccccc3)c2C1 [Compound 319]
The IC50 of the first is lower: 0.01 to 0.1 µM for the first, 0.1 to 1 µM for the second.

`COC(=O)N1CCc2ccc3c(nc(C4CCCCC4)n3CC[C@H]3CCC[C@H](C(=O)O)C3)c2C1` [Compound 172] and `COC(=O)N1CCc2ccc3c(nc(N4CCC(C(=O)O)CC4)n3[C@H](C)Cc3cc(F)cc(OC)c3)c2C1` (single isomer, unassigned) [Compound 16] fall in the same range of IC50: 0.001 to 0.01 µM for the first, 0.001 to 0.01 µM for the second.

Compared with `COC(=O)N1CCc2ccc3c(nc([C@H]4CC[C@H](C(=O)O)CC4)n3[C@H](C)C[C@H]3CC[C@H](OC)CC3)c2C1` [Compound 287], `COC(=O)N1CCc2ccc3c(nc(N4CCN(S(C)(=O)=O)CC4)n3[C@@H](C)Cc3ccccc3)c2C1` [Compound 80] is lower in IC50: 0.01 to 0.1 µM for the first, 0.001 to 0.01 µM for the second. The second is the more potent here.

First: COC(=O)N1CCc2ccc3c(nc(N4CCC(C(=O)O)CC4)n3[C@H](C)Cn3cc(C(F)(F)F)cn3)c2C1 [Compound 285]
Second: COC(=O)N1CCc2ccc3c(nc(N4CCC(C(=O)O)CC4)n3[C@@H](C)C(F)(F)c3ccccc3)c2C1 (single isomer, unassigned) [Compound 24]
The IC50 of the first is higher: 0.01 to 0.1 µM for the first, 0.001 to 0.01 µM for the second. The second is the more potent here.

First: COC(=O)N1CCc2ccc3c(nc(-c4ccncc4)n3[C@@H](C)Cc3ccccc3)c2C1 [Compound 109]
Second: COC(=O)N1CCc2ccc3c(nc([C@H]4C[C@@H](C(=O)O)C4)n3[C@H](C)Cc3ccccc3C)c2C1 [Compound 340]
The IC50 of the first is lower: 0.001 to 0.01 µM for the first, 0.1 to 1 µM for the second.

`COC(=O)N1CCc2ccc3c(nc([C@H]4CC[C@H](C(=O)O)CC4)n3[C@H](C)CC3CCOCC3)c2C1` [Compound 265] and `COC(=O)N1CCc2ccc3c(nc(-c4cccc(C(C)(C)C(=O)O)c4)n3[C@@H](C)Cn3cc(Cl)cn3)c2C1` [Compound 185] fall in the same range of IC50: 0.01 to 0.1 µM for the first, 0.01 to 0.1 µM for the second.

Compared with `COC(=O)N1CCc2ccc3c(nc(C4CCCCC4)n3C[C@H]3CC[C@@H](C(=O)O)CC3)c2C1` [Compound 221], `COC(=O)N1CCc2ccc3c(nc([C@H]4CC[C@H](C(=O)O)CC4)n3[C@H](C)C(F)(F)c3ccccc3)c2C1` [Compound 125] is lower in IC50: 0.01 to 0.1 µM for the first, 0.001 to 0.01 µM for the second. The second is the more potent here.

`COC(=O)N1CCc2ccc3c(nc([C@H]4CC[C@H](OC)CC4)n3C[C@@H](C(=O)O)c3ccccc3)c2C1` [Compound 123] and `COC(=O)N1CCc2ccc3c(nc(-c4ccc(CC(=O)O)cc4)n3[C@@H](C)Cn3cc(Cl)cn3)c2C1` [Compound 122] fall in the same range of IC50: 0.001 to 0.01 µM for the first, 0.001 to 0.01 µM for the second.

`COC(=O)N1CCc2ccc3c(nc(C4CCN(C(=O)CO)CC4)n3[C@@H](C)Cc3ccccc3)c2C1` [Compound 106] and `COC(=O)N1CCc2ccc3c(nc([C@H]4CC[C@@H](OC)CC4)n3C[C@@H](C(=O)O)c3ccccc3)c2C1` [Compound 64] fall in the same range of IC50: 0.001 to 0.01 µM for the first, 0.001 to 0.01 µM for the second.

`COC(=O)N1CCc2ccc3c(nc([C@H]4CCC[C@@H](C(=O)O)C4)n3[C@@H](C)Cc3ccccc3)c2C1` (single isomer, unassigned) [Compound 13] and `COC(=O)N1CCc2ccc3c(nc(C4CCCCC4)n3C[C@H](C(=O)O)c3cccc(F)c3F)c2C1` [Compound 104] fall in the same range of IC50: 0.001 to 0.01 µM for the first, 0.001 to 0.01 µM for the second.

First: COC(=O)N1CCc2ccc3c(nc(-c4ccc(C(=O)O)cc4)n3[C@H](C)Cc3ccccc3)c2C1 [Compound 279]
Second: COC(=O)N1CCc2ccc3c(nc([C@@H]4CCC[C@@H](C(=O)O)C4)n3[C@@H](C)Cc3ccccc3C)c2C1 (single isomer, unassigned) [Compound 17]
The IC50 of the first is higher: 0.01 to 0.1 µM for the first, 0.001 to 0.01 µM for the second. The second is the more potent here.

First: COC(=O)N1CCc2ccc3c(nc(C4CCCCC4)n3C[C@@H](C(=O)O)c3cc(F)ccc3OC)c2C1 [Compound 240]
Second: COC(=O)N1CCc2ccc3c(nc(C4CCCCC4)n3CC(C(=O)O)C3CCCCC3)c2C1 (centres unmarked) [Compound 126]
The IC50 of the first is higher: 0.01 to 0.1 µM for the first, 0.001 to 0.01 µM for the second.

`COC(=O)N1CCc2ccc3c(nc(C4CCCC4)n3C[C@H](CC(=O)O)c3ccccc3)c2C1` (single isomer, unassigned) [Compound 174] and `COC(=O)N1CCc2ccc3c(nc(C4CCCCC4)n3C[C@H](CC(=O)O)c3ccc(F)c(F)c3)c2C1` (single isomer, unassigned) [Compound 189] fall in the same range of IC50: 0.01 to 0.1 µM for the first, 0.01 to 0.1 µM for the second.

Compared with `COC(=O)N1CCc2ccc3c(nc([C@H]4CC[C@H](C(=O)O)CC4)n3C(=O)N(C)c3ccccc3)c2C1` [Compound 292], `COC(=O)N1CCc2ccc3c(nc([C@H]4CCC[C@H](C(=O)O)C4)n3Cc3cncc(Cl)n3)c2C1` [Compound 254] is lower in IC50: 0.1 to 1 µM for the first, 0.01 to 0.1 µM for the second.

`COC(=O)N1CCc2ccc3c(nc([C@H]4CC[C@H](C(=O)O)CC4)n3[C@@H](C)Cc3c(C)cccc3C)c2C1` [Compound 6] was tested, and the IC50 was 0.001 to 0.01 µM.
